Experimental data taken from article PMC7200681, “The calcitonin-like system is an ancient regulatory system of biomineralization” (Scientific Reports, 2020).

Legend:
mussel mantle edge = experiment: Ex-vivo incubation of mantle edge fragments, calcium quantification by MP-AES; parameters: species or system Mytilus galloprovincialis; conditions: Verapamil 200 µM, 4 hours; data not shown
Experimental: Figure 7 Effect of the mussel calcitonin-like peptide on (A) calcium (ppm) concentration in the mantle edge and (B) calcium uptake by mantle cells of the Mediterranean mussel. (A) The quantity of calcium (ppm) present in the mantle edge after mussel CALCIIa peptide incubation was measured using a Microwave Plasma-Atomic Emission Spectrometer (MP-AES, Agilent) at 393.366 nm. A standard curve for calcium was performed before analysing the samples. In vitro mantle assays with CALCIIa peptide and with ouabain and control (culture medium and mantle) were repeated on at least 3 independent occasions. For each assay at least ten replicates were performed and the mantle edge distal to the umbo was used (one mantle fragment per replica). Prism GraphPad v5 software was used to assess the significance of differences between the groups using a One-way Anova and Tukey’s multiple comparison test. […] C - control (no peptide or ouabain); P - peptide (10 μM); O - ouabain (2 mM), OP - ouabain (2 mM) and peptide (10 μM); PreOP - pre -stimulation for 1 hour with the peptide followed by 4 hours incubation with OP. (B) Digital photographs of the mussel mantle cells in the presence (CALCIIa, 10 μM) or absence (control) of the mussel CALCIIa peptide. Calcium ions were stained with 50 mM of Calcein (green) and cell nuclei (blue) with DAPI (Acros Organics). An increase in cellular fluorescence represents an increase in calcium uptake. Fluorescence of the CALCIIa peptide stimulated cells was 1.9 times higher than the control. The average mantle cell size was 3–4 μm and fluorescent images were taken using a Leica DM IL microscope coupled to a Visicam HDMI 6 digital camera and photographs were analysed using ImageJ software (v. 1.52a) to calculate the fluorescence intensity and for image overlay. The scale bar is indicated.
The posterior mantle edge region of the Mediterranean mussel was collected and washed in culture medium. The composition of the culture medium was as described in[91] […]

mussel CALCRIIc = experiment: Calcium mobilization assay (apoaequorin bioluminescence), dose-response, HEK 293 cells expressing mussel CALCRIIc; type: cell-based, Mytilus coruscus; conditions: HEK 293/apoaequorin, 1 μM to 0.01 nM
Text: The complete sequence of the Mediterranean mussel CALCRIa was amplified using specific primers (Table 1) from cDNA of a tissue mixture (mantle, adductor muscle, gills, gonads) using a proofreading DNA polymerase (iProof BIORAD, Portugal) and cloned into the pGEMT-easy vector (PROMEGA, Spain). The Mediterranean mussel CALCRIIa transcript that was found in the mantle transcriptome was incomplete and lacked the N-terminus (by comparisons with the hard-shelled mussel homologue) and so the remaining sequence (from 1–393 bp) was deduced from the hard-shelled mussel homologue receptor and the receptor was synthesised and supplied by GENESCRIPT (USA). The complete transcripts for mussel CALCRIc, CALCRIIb and CALCRIIc were only found in the hard-shelled mussel mantle transcriptome and homologues were only found in the Mediterranean mussel genome as they were absent from the species mantle transcriptome and so they were also synthesised and supplied by GENESCRIPT (USA) using the hard-shelled mussel receptor sequences as template. […]
Mammalian cell cultures and transfections followed the methodology described by[89],[90]. […] Cell recovery was monitored daily and the medium was changed every two days until no cell death was observed. […]
(§1) HEK293 cells stably expressing five mussel receptors (CALCRIa, CALCRIc, CALCRIIa, CALCRIIb and CALCRIIc) were stimulated with the two mussel peptides and the vertebrate (human and salmon) calcitonins. Receptor activation was assessed in vitro by measuring two intracellular signalling pathways: a) production of cAMP and b) mobilization of calcium (Ca^2+). The cellular response was initially assessed using 10 μM of each peptide. […]
Stable cell lines expressing the mussel receptors were transiently co-transfected with the mitochondrial targeted apo-aequorin protein cloned in pcDNA3.1. Two days after transfection cells were washed, counted and resuspended in 1 ml of DMEM /F12 Ham (without phenol red)/0.1% BSA supplemented with 2 µM coelenterazine (SIGMA-ALDRICH). […]

[1] = system: mussel CALCR-like (CALCRIa, CALCRIc, CALCRIIa, CALCRIIb and CALCRIIc); experiment: cAMP assay in HEK 293 cells stably expressing the mussel receptors; type: cell-based; conditions: 10 µM peptide, 30 min at 37 °C, 1 mM IBMX; % of Forskolin (10uM) response; single experiment in triplicate (Supplementary Figure 7A)
Experimental: Mammalian cell cultures and transfections followed the methodology described by[89],[90]. Mammalian HEK293 cells (ECACC, UK) were used and they were maintained in complete Dulbecco’s modified Eagle’s medium (DMEM, 4.5 g/l glucose, 110 mg/l sodium pyruvate and L-glutamine, SIGMA-ALDRICH, Spain) supplemented with 10% sterile foetal bovine serum (FBS), 0.1% penicillin: streptomycin antibiotic mix (10,000 U:10 mg/ml, Sigma) and 250 μg /ml sterile filtered 1:100 amphotericin B solution (SIGMA-ALDRICH) in a humid 5% CO2 incubator (HERAEUS, Portugal) at 37 °C. […] Cell recovery was monitored daily and the medium was changed every two days until no cell death was observed. […]
as §1
The amount of cAMP produced was determined using a competitive immunoassay with a cryptate labelled anti-cAMP antibody (CISBIO, France) and followed the methodology describe by[89],[90]. […]

mussel CALCRIa = experiment: Calcium mobilization assay (apoaequorin bioluminescence), dose-response, HEK 293 cells expressing mussel CALCRIa; type: cell-based, Mytilus galloprovincialis; conditions: for EC50: HEK 293 cells stably expressing receptor, co-transfected with apoaequorin, peptide 1 μM to 0.01 nM, three independent assays in duplicate, read-out: EC50, activation of mussel CALCRIa (intracellular calcium mobilization); for Activation of mussel CALCRIa in dose-response analysis (in words): calcium mobilization, HEK 293/apoaequorin, 1 μM to 0.01 nM
Text: (§2) The complete sequence of the Mediterranean mussel CALCRIa was amplified using specific primers (Table 1) from cDNA of a tissue mixture (mantle, adductor muscle, gills, gonads) using a proofreading DNA polymerase (iProof BIORAD, Portugal) and cloned into the pGEMT-easy vector (PROMEGA, Spain). The Mediterranean mussel CALCRIIa transcript that was found in the mantle transcriptome was incomplete and lacked the N-terminus (by comparisons with the hard-shelled mussel homologue) and so the remaining sequence (from 1–393 bp) was deduced from the hard-shelled mussel homologue receptor and the receptor was synthesised and supplied by GENESCRIPT (USA). The complete transcripts for mussel CALCRIc, CALCRIIb and CALCRIIc were only found in the hard-shelled mussel mantle transcriptome and homologues were only found in the Mediterranean mussel genome as they were absent from the species mantle transcriptome and so they were also synthesised and supplied by GENESCRIPT (USA) using the hard-shelled mussel receptor sequences as template. The mussel CALCRIb transcript was incomplete and lacked both N and C-terminal regions and it was not possible to obtain the complete transcript either by searching both mussels mantle transcriptomes or the Mediterranean mussel genome and so it was not produced. All synthetized receptors were provided in the pUC57 cloning vector by the company and receptor codon usage was optimized to favour a high level of expression in mammalian cells.
(§3) Mammalian cell cultures and transfections followed the methodology described by[89],[90]. Mammalian HEK293 cells (ECACC, UK) were used and they were maintained in complete Dulbecco’s modified Eagle’s medium (DMEM, 4.5 g/l glucose, 110 mg/l sodium pyruvate and L-glutamine, SIGMA-ALDRICH, Spain) supplemented with 10% sterile foetal bovine serum (FBS), 0.1% penicillin: streptomycin antibiotic mix (10,000 U:10 mg/ml, Sigma) and 250 μg /ml sterile filtered 1:100 amphotericin B solution (SIGMA-ALDRICH) in a humid 5% CO2 incubator (HERAEUS, Portugal) at 37 °C. On the day prior to transfection, 2–3 × 10^5 HEK293 cells were seeded on 6 well plates (SARSTEDT, Portugal) and transfected with Fugene HD transfection reagent (2 DNA: 4 Fugene ratio, PROMEGA) following the manufacturer’s protocol. Seventy-two hours after transfection, 800 μg/ml of the antibiotic Geneticin (SIGMA-ALDRICH) was added to the medium to select and isolate stable receptor cell lines. Cell recovery was monitored daily and the medium was changed every two days until no cell death was observed. […]
as §1
(§4) Stable cell lines expressing the mussel receptors were transiently co-transfected with the mitochondrial targeted apo-aequorin protein cloned in pcDNA3.1. Two days after transfection cells were washed, counted and resuspended in 1 ml of DMEM /F12 Ham (without phenol red)/0.1% BSA supplemented with 2 µM coelenterazine (SIGMA-ALDRICH). […] The injector system of the Biotek Synergy 4 microplate reader (USA) was used to inject 50 µl of the cell suspensions into wells containing 50 μl of the diluted peptide in DMEM / F12 Ham / 0.1% BSA. […]

mussel CALCRIIa = experiment: Calcium mobilization assay (apoaequorin bioluminescence), dose-response, HEK 293 cells expressing mussel CALCRIIa; type: cell-based, Mytilus galloprovincialis; conditions: for EC50: HEK 293 cells stably expressing receptor, co-transfected with apoaequorin, peptide 1 μM to 0.01 nM, three independent assays in duplicate, read-out: EC50, activation of mussel CALCRIIa (intracellular calcium mobilization); for Activation of mussel CALCRIIa in dose-response analysis (in words): calcium mobilization, HEK 293/apoaequorin, 1 μM to 0.01 nM
Text: as §2, §3, §1, §4

SMILES	Calcium concentration of mantle fragments relative to the control (in words) (mussel mantle edge)	Activation of mussel CALCRIIc in dose-response analysis (in words) (mussel CALCRIIc)	Stimulation of all mussel receptors via the cAMP pathway (in words) [1]	EC50 (mussel CALCRIa) [nM]	Activation of mussel CALCRIa in dose-response analysis (in words) (mussel CALCRIa)	EC50 (mussel CALCRIIa) [nM]	Activation of mussel CALCRIIa in dose-response analysis (in words) (mussel CALCRIIa)
COc1ccc(CCN(C)CCCC(C#N)(c2ccc(OC)c(OC)c2)C(C)C)cc1OC (stereo not shown) [Verapamil]	did not change						
CC[C@H](C)[C@H](NC(=O)[C@H](C)NC(=O)[C@@H](NC(=O)[C@H](CCC(N)=O)NC(=O)[C@@H]1CCCN1C(=O)[C@H](Cc1ccccc1)NC(=O)[C@@H](NC(=O)[C@H](Cc1c[nH]cn1)NC(=O)[C@H](Cc1ccccc1)NC(=O)[C@H](CCCCN)NC(=O)[C@H](CC(N)=O)NC(=O)[C@H](Cc1ccccc1)NC(=O)[C@H](CC(=O)O)NC(=O)[C@H](CCC(N)=O)NC(=O)[C@@H](NC(=O)[C@H](Cc1ccc(O)cc1)NC(=O)[C@@H](NC(=O)CNC(=O)[C@H](CC(C)C)NC(=O)[C@H](CCSC)NC(=O)[C@@H]1CSSC[C@H](N)C(=O)NCC(=O)N[C@@H](CC(N)=O)C(=O)N[C@@H](CC(C)C)C(=O)N[C@@H](CO)C(=O)N[C@@H]([C@@H](C)O)C(=O)N1)[C@@H](C)O)[C@@H](C)O)[C@@H](C)O)[C@@H](C)O)C(=O)NCC(=O)N[C@H](C(=O)NCC(=O)N[C@@H](C)C(=O)N1CCC[C@H]1C(N)=O)C(C)C [human calcitonin, calcitonin]		but not CALCRIIc	stimulated	9.5	activated	500	activated
CC(C)C[C@H](NC(=O)[C@H](CCCCN)NC(=O)CNC(=O)[C@H](CC(C)C)NC(=O)[C@@H](NC(=O)[C@@H]1CSSC[C@H](N)C(=O)N[C@@H](CO)C(=O)N[C@@H](CC(N)=O)C(=O)N[C@@H](CC(C)C)C(=O)N[C@@H](CO)C(=O)N[C@@H]([C@@H](C)O)C(=O)N1)C(C)C)C(=O)N[C@@H](CO)C(=O)N[C@@H](CCC(N)=O)C(=O)N[C@@H](CCC(=O)O)C(=O)N[C@@H](CC(C)C)C(=O)N[C@@H](Cc1c[nH]cn1)C(=O)N[C@@H](CCCCN)C(=O)N[C@@H](CC(C)C)C(=O)N[C@@H](CCC(N)=O)C(=O)N[C@H](C(=O)N[C@@H](Cc1ccc(O)cc1)C(=O)N1CCC[C@H]1C(=O)N[C@@H](CCCNC(=N)N)C(=O)N[C@H](C(=O)N[C@@H](CC(N)=O)C(=O)N[C@H](C(=O)NCC(=O)N[C@@H](CO)C(=O)NCC(=O)N[C@H](C(=O)N1CCC[C@H]1C(N)=O)[C@@H](C)O)[C@@H](C)O)[C@@H](C)O)[C@@H](C)O [salmon calcitonin, calcitonin]		but not CALCRIIc	stimulated	5	activated	14	activated
